Measured values as given in US10640506B2, “Cyclobutyl substituted pyrrolopyridine and pyrrolopyrimidines derivatives as JAK inhibitors” (Incyte Corporation, priority 2010, dated 2020).

Key:
[1] = target: human JAK1 (a.a. 837-1142) (Homo sapiens, UniProt P23458); test: In vitro JAK kinase assay (HTRF, phosphorylation of biotinylated peptide), JAK1; assay type: biochemical; conditions: Table F; 1 mM ATP
Outline: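 Phosphorylation of a biotinylated peptide was run at room temperature for 1 hour using the N-terminally His-tagged JAK1 kinase domain (837-1142) from insect cells. After an EDTA stop, Eu-Py20 and SA-APC gave an HTRF read; values are binned potency ranges.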

JAK2 (a.a. 828-1132) = target: T1, JAK2 (a.a. 828-1132) (Homo sapiens, UniProt O60674); test: In vitro JAK kinase assay (HTRF, phosphorylation of biotinylated peptide), JAK2; assay type: biochemical; conditions: Table F; 1 mM ATP
T1 construct: JAK2 (a.a. 828-1132); His tag (N)
Outline: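 HTRF detection (Eu-Py20, SA-APC, 40 min) of biotinylated-peptide phosphorylation, following a 1 hour room-temperature reaction quenched with 45 mM EDTA. Enzymes: insect-cell-expressed N-terminal His-tagged JAK1 (837-1142) and JAK2 (828-1132) catalytic domains. Activities reported in ranged categories.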

Chain of human JAK1 (a.a. 837-1142) (P23458 849-1154): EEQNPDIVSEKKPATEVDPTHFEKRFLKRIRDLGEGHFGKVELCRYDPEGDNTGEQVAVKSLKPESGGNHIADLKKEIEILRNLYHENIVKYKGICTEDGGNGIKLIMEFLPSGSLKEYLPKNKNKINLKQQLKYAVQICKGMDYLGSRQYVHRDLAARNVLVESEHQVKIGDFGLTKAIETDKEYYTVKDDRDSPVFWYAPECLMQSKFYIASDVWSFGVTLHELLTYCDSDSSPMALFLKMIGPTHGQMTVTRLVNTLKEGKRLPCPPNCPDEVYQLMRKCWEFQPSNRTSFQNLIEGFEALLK
T1 sequence (O60674 828-1132): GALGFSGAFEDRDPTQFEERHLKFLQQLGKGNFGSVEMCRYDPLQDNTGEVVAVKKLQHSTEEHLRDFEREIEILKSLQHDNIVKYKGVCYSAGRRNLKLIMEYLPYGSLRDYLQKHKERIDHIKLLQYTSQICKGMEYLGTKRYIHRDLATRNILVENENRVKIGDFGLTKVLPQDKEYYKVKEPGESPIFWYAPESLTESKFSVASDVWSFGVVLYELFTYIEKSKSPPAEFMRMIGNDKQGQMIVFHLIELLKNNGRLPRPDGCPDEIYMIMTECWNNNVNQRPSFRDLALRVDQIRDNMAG

| Compound | IC50 [1] | IC50 (JAK2 (a.a. 828-1132)) |
| --- | --- | --- |
| CC(C)(C)CNC(=O)N1CCN([C@H]2C[C@](CC#N)(n3cc(-c4ncnc5[nH]ccc45)cn3)C2)CC1 [Example 100, 4-{trans-3-(cyanomethyl)-3-[4-(7H-pyrrolo[2,3-d]pyrimidin-4-yl)-1H-pyrazol-1-yl]cyclobutyl}-N-(2,2-dimethylpropyl)piperazine-1-carboxamide] | 10 to 25 nM | > 100 nM |
| CC(C)CNC(=O)N1CCN([C@H]2C[C@](CC#N)(n3cc(-c4ncnc5[nH]ccc45)cn3)C2)CC1 [Example 101, 4-{trans-3-(cyanomethyl)-3-[4-(7H-pyrrolo[2,3-d]pyrimidin-4-yl)-1H-pyrazol-1-yl]cyclobutyl}-N-isobutylpiperazine-1-carboxamide] | < 10 nM | 25 to 100 nM |
| CC[C@@H](C)NC(=O)N1CCN([C@H]2C[C@](CC#N)(n3cc(-c4ncnc5[nH]ccc45)cn3)C2)CC1 [Example 102, 4-{trans-3-(cyanomethyl)-3-[4-(7H-pyrrolo[2,3-d]pyrimidin-4-yl)-1H-pyrazol-1-yl]cyclobutyl}-N-[(1R)-1-methylpropyl]piperazine-1-carboxamide] | < 10 nM | 25 to 100 nM |
| CC[C@H](C)NC(=O)N1CCN([C@H]2C[C@](CC#N)(n3cc(-c4ncnc5[nH]ccc45)cn3)C2)CC1 [Example 103, 4-{trans-3-(cyanomethyl)-3-[4-(7H-pyrrolo[2,3-d]pyrimidin-4-yl)-1H-pyrazol-1-yl]cyclobutyl}-N-[(1S)-1-methylpropyl]piperazine-1-carboxamide] | < 10 nM | 25 to 100 nM |
| N#CC[C@]1(n2cc(-c3ncnc4[nH]ccc34)cn2)C[C@@H](N2CCN(C(=O)NC3CCC3)CC2)C1 [Example 104, 4-{cis-3-(cyanomethyl)-3-[4-(7H-pyrrolo[2,3-d]pyrimidin-4-yl)-1H-pyrazol-1-yl]cyclobutyl}-N-cyclobutylpiperazine-1-carboxamide] | 10 to 25 nM | > 100 nM |
| CC[C@@H](C)NC(=O)N1CCN([C@H]2C[C@@](CC#N)(n3cc(-c4ncnc5[nH]ccc45)cn3)C2)CC1 [Example 105, 4-{cis-3-(cyanomethyl)-3-[4-(7H-pyrrolo[2,3-d]pyrimidin-4-yl)-1H-pyrazol-1-yl]cyclobutyl}-N-[(1R)-1-methylpropyl]piperazine-1-carboxamide] | 10 to 25 nM | 25 to 100 nM |
| CC[C@H](C)NC(=O)N1CCN([C@H]2C[C@@](CC#N)(n3cc(-c4ncnc5[nH]ccc45)cn3)C2)CC1 [Example 106, 4-{cis-3-(cyanomethyl)-3-[4-(7H-pyrrolo[2,3-d]pyrimidin-4-yl)-1H-pyrazol-1-yl]cyclobutyl}-N-[(1S)-1-methylpropyl]piperazine-1-carboxamide] | 10 to 25 nM | > 100 nM |
| N#CC[C@]1(n2cc(-c3ncnc4[nH]ccc34)cn2)C[C@@H](N2CCN(C(=O)NC3CC3)CC2)C1 [Example 107, 4-{cis-3-(cyanomethyl)-3-[4-(7H-pyrrolo[2,3-d]pyrimidin-4-yl)-1H-pyrazol-1-yl]cyclobutyl}-N-cyclopropylpiperazine-1-carboxamide] | 10 to 25 nM | > 100 nM |
| CC(C)NC(=O)N1CCN([C@H]2C[C@@](CC#N)(n3cc(-c4ncnc5[nH]ccc45)cn3)C2)CC1 [Example 108, 4-{cis-3-(cyanomethyl)-3-[4-(7H-pyrrolo[2,3-d]pyrimidin-4-yl)-1H-pyrazol-1-yl]cyclobutyl}-N-isopropylpiperazine-1-carboxamide] | 10 to 25 nM | > 100 nM |
| N#CC[C@]1(n2cc(-c3ncnc4[nH]ccc34)cn2)C[C@@H](N2CCN(C(=O)NC3CCCC3)CC2)C1 [Example 109, 4-{cis-3-(cyanomethyl)-3-[4-(7H-pyrrolo[2,3-d]pyrimidin-4-yl)-1H-pyrazol-1-yl]cyclobutyl}-N-cyclopentylpiperazine-1-carboxamide] | < 10 nM | 25 to 100 nM |
| CC(C)[C@@H](C)NC(=O)N1CCN([C@H]2C[C@@](CC#N)(n3cc(-c4ncnc5[nH]ccc45)cn3)C2)CC1 [Example 110, 4-{cis-3-(cyanomethyl)-3-[4-(7H-pyrrolo[2,3-d]pyrimidin-4-yl)-1H-pyrazol-1-yl]cyclobutyl}-N-[(1R)-1,2-dimethylpropyl]piperazine-1-carboxamide] | < 10 nM | > 100 nM |
| CC(C)[C@H](C)NC(=O)N1CCN([C@H]2C[C@@](CC#N)(n3cc(-c4ncnc5[nH]ccc45)cn3)C2)CC1 [Example 111, 4-{cis-3-(cyanomethyl)-3-[4-(7H-pyrrolo[2,3-d]pyrimidin-4-yl)-1H-pyrazol-1-yl]cyclobutyl}-N-[(1S)-1,2-dimethylpropyl]piperazine-1-carboxamide] | 10 to 25 nM | > 100 nM |
| CNC(=O)N1CCN([C@H]2C[C@](CC#N)(n3cc(-c4ncnc5[nH]ccc45)cn3)C2)CC1 [Example 112, 4-{trans-3-(cyanomethyl)-3-[4-(7H-pyrrolo[2,3-d]pyrimidin-4-yl)-1H-pyrazol-1-yl]cyclobutyl}-N-methylpiperazine-1-carboxamide] | 10 to 25 nM | 25 to 100 nM |
| C[C@@H](NC(=O)N1CCN([C@H]2C[C@](CC#N)(n3cc(-c4ncnc5[nH]ccc45)cn3)C2)CC1)C(F)(F)F [Example 113, 4-{trans-3-(cyanomethyl)-3-[4-(7H-pyrrolo[2,3-d]pyrimidin-4-yl)-1H-pyrazol-1-yl]cyclobutyl}-N-[(1R)-2,2,2-trifluoro-1-methylethyl]piperazine-1-carboxamide] | < 10 nM | > 100 nM |
| C[C@H](NC(=O)N1CCN([C@H]2C[C@](CC#N)(n3cc(-c4ncnc5[nH]ccc45)cn3)C2)CC1)C(F)(F)F [Example 114, 4-{trans-3-(cyanomethyl)-3-[4-(7H-pyrrolo[2,3-d]pyrimidin-4-yl)-1H-pyrazol-1-yl]cyclobutyl}-N-[(1S)-2,2,2-trifluoro-1-methylethyl]piperazine-1-carboxamide] | < 10 nM | > 100 nM |
| CC[C@H](NC(=O)N1CCN([C@H]2C[C@](CC#N)(n3cc(-c4ncnc5[nH]ccc45)cn3)C2)CC1)C(F)(F)F [Example 115, 4-{trans-3-(cyanomethyl)-3-[4-(7H-pyrrolo[2,3-d]pyrimidin-4-yl)-1H-pyrazol-1-yl]cyclobutyl}-N-[(1S)-1-(trifluoromethyl)propyl]piperazine-1-carboxamide] | < 10 nM | > 100 nM |
| N#CC[C@]1(n2cc(-c3ncnc4[nH]ccc34)cn2)C[C@H](N2CCN(C(=O)N3CCC[C@@H]3C(F)(F)F)CC2)C1 [Example 116, [trans-1-[4-(7H-pyrrolo[2,3-d]pyrimidin-4-yl)-1H-pyrazol-1-yl]-3-(4-{[(2R)-2-(trifluoromethyl)pyrrolidin-1-yl]carbonyl}piperazin-1-yl)cyclobutyl]acetonitrile] | 25 to 100 nM | > 100 nM |
| N#CC[C@]1(n2cc(-c3ncnc4[nH]ccc34)cn2)C[C@H](N2CCN(C(=O)N3CCC[C@H]3C(F)(F)F)CC2)C1 [Example 117, [trans-1-[4-(7H-pyrrolo[2,3-d]pyrimidin-4-yl)-1H-pyrazol-1-yl]-3-(4-{[(2S)-2-(trifluoromethyl)pyrrolidin-1-yl]carbonyl}piperazin-1-yl)cyclobutyl]acetonitrile] | 25 to 100 nM | > 100 nM |
| CN(C)/C(=N\C#N)N1CCN([C@H]2C[C@](CC#N)(n3cc(-c4ncnc5[nH]ccc45)cn3)C2)CC1 [Example 118, N′-cyano-4-{trans-3-(cyanomethyl)-3-[4-(7H-pyrrolo[2,3-d]pyrimidin-4-yl)-1H-pyrazol-1-yl]cyclobutyl}-N,N-dimethylpiperazine-1-carboximidamide] | 10 to 25 nM | 25 to 100 nM |
| CS(=O)(=O)N1CCN([C@H]2C[C@](CC#N)(n3cc(-c4ncnc5[nH]ccc45)cn3)C2)CC1 [Example 119, {trans-3-[4-(methylsulfonyl)piperazin-1-yl]-1-[4-(7H-pyrrolo[2,3-d]pyrimidin-4-yl)-1H-pyrazol-1-yl]cyclobutyl}acetonitrile] | < 10 nM | 10 to 25 nM |
| CC(C)OC(=O)N1CCN([C@H]2C[C@](CC#N)(n3cc(-c4ncnc5[nH]ccc45)cn3)C2)CC1 [Example 120, isopropyl 4-{trans-3-(cyanomethyl)-3-[4-(7H-pyrrolo[2,3-d]pyrimidin-4-yl)-1H-pyrazol-1-yl]cyclobutyl}piperazine-1-carboxylate] | < 10 nM | 25 to 100 nM |
| CC(C)(C)NCc1cc(OC2CCN([C@H]3C[C@](CC#N)(n4cc(-c5ncnc6[nH]ccc56)cn4)C3)CC2)nc(C(F)(F)F)c1 [Example 127, {trans-3-(4-{[4-[(tert-butylamino)methyl]-6-(trifluoromethyl)pyridin-2-yl]oxy}piperidin-1-yl)-1-[4-(7H-pyrrolo[2,3-d]pyrimidin-4-yl)-1H-pyrazol-1-yl]cyclobutyl}acetonitrile] | < 10 nM | 25 to 100 nM |
| CC(C)(C)NCc1cc(OC2CCN([C@H]3C[C@@](CC#N)(n4cc(-c5ncnc6[nH]ccc56)cn4)C3)CC2)nc(C(F)(F)F)c1 [Example 128, {cis-3-(4-{[4-[(tert-butylamino)methyl]-6-(trifluoromethyl)pyridin-2-yl]oxy}piperidin-1-yl)-1-[4-(7H-pyrrolo[2,3-d]pyrimidin-4-yl)-1H-pyrazol-1-yl]cyclobutyl}acetonitrile] | 25 to 100 nM | > 100 nM |
| N#CC[C@]1(n2cc(-c3ncnc4[nH]ccc34)cn2)C[C@H](N2CCC(Oc3cc(CN)cc(C(F)(F)F)n3)CC2)C1 [Example 129, {trans-3-(4-{[4-(aminomethyl)-6-(trifluoromethyl)pyridin-2-yl]oxy}piperidin-1-yl)-1-[4-(7H-pyrrolo[2,3-d]pyrimidin-4-yl)-1H-pyrazol-1-yl]cyclobutyl}acetonitrile] | < 10 nM | 25 to 100 nM |
